Like-named read-outs stand apart in the source and are kept apart here.
Tests used:
Assay type in all cases: cell-based
[1] = test system: NIH3T3 cells overexpressing the HER2 kinase (3T3-HER2); test: 3T3 Growth Assay (HER2-overexpressing 3T3 cells, SRB); conditions: Mus musculus
Source text: (§1) The following examples illustrate the ability of the exemplary compounds to inhibit receptor tyrosine kinases, such as HER2 and/or EGFR. The following target cells were used for cellular kinase assays: NIH3T3 clone C7 (Honegger et al., supra) engineered to over-express human EGF receptor; NIH3T3 cells engineered to over-express a chimeric receptor containing the EGFR extracellular domain and the HER2 intracellular kinase domain; the human mammary carcinoma line BT474 (ATCC HTB2) expressing HER2; and the human glioblastoma line U1242 that expresses PDGFR-beta. Growth assays were carried out using human mammary epithelial SKBR3 (ATCC HTB30) cells (SKBR3 cells over-express HER2), SKOV3 (ATCC HTB77) human ovarian cancer cell line (SKOV3 cells also over-express HER2), A431 cells (A431 cells over-express EGFR) MCF7 human breast carcinoma cells, MCF7 cells overexpressing the HER2 kinase (MCF7-HER2), NIH3T3 cells, and NIH3T3 cells overexpressing the HER2 kinase (3T3-HER2.
The 3T3 growth assay was carried out as follows: […]
(1) HER2C7 (engineered to express HER2) and NIH3T3C7 (as the control) cells are used for this assay. […] Cells are incubated at 37° C., 5% CO2 overnight to allow for cell attachment to the plate;
(2) The […] compound is added to the cells at day 2. […] A total of 100 μl/well medium of the diluted compounds is added into the cells. The total volume of each well is 200 μl. Quadruplicates (wells) and 11 concentration points are applied to each compound tested.
(3) After the cells are treated with the compound for 4 days, the cells are washed with PBS and fixed with 200 μl/well ice-cold 10% TCA for one hour at 0°-5° C. condition.
(4) Remove TCA and rinse wells 5 times with deionized water. Dry plates upside down with paper towels. Stain cells with 0.4% SRB at 100 μl well for 10 minutes.
(5) Pour off SRB and rinse plate 5 times with 1% acetic acid. Dry plate completely.
(6) Solubilize the dye with 10 mM Tris-base at 100 μl/well for 10 minutes on a shaker.
(7) Read the plate at dual wavelengths at 570 nm and 630 nm on Dynatech Elisa plate reader.

[2] = test system: MCF7 cells overexpressing the HER2 kinase (MCF7-HER2); test: MCF-7/HER-2 SRB Growth Assay; conditions: Homo sapiens, read-out: GROWTH DATA: MCF7-HER2 0.5% FBS
Source text: as §1
MCF-7/HER-2 SRB Growth Assay
The protocol is basically the same as that above (for the MCF-7 Growth Assay) except that immediately before the 30 compound is added, the normal growth media is removed and 0.5% FBS/RPMI supplemented with 2 mM Glutamine is added onto the cells. The compound is also prepared in this 0.5% serum media. The plate of cells is incubated for four days and developed as usual.

[3] = target: T1, PDGFR-beta (Homo sapiens, UniProt P09619); test: PDGF-R Cellular Assay (cellular kinase ELISA)
T1 construct: the human glioblastoma line U1242 that expresses PDGFR-beta; endogenous in cells; host or cells: U1242 (U1242 MG) human glioblastoma
T1 sequence (P09619 33-1106): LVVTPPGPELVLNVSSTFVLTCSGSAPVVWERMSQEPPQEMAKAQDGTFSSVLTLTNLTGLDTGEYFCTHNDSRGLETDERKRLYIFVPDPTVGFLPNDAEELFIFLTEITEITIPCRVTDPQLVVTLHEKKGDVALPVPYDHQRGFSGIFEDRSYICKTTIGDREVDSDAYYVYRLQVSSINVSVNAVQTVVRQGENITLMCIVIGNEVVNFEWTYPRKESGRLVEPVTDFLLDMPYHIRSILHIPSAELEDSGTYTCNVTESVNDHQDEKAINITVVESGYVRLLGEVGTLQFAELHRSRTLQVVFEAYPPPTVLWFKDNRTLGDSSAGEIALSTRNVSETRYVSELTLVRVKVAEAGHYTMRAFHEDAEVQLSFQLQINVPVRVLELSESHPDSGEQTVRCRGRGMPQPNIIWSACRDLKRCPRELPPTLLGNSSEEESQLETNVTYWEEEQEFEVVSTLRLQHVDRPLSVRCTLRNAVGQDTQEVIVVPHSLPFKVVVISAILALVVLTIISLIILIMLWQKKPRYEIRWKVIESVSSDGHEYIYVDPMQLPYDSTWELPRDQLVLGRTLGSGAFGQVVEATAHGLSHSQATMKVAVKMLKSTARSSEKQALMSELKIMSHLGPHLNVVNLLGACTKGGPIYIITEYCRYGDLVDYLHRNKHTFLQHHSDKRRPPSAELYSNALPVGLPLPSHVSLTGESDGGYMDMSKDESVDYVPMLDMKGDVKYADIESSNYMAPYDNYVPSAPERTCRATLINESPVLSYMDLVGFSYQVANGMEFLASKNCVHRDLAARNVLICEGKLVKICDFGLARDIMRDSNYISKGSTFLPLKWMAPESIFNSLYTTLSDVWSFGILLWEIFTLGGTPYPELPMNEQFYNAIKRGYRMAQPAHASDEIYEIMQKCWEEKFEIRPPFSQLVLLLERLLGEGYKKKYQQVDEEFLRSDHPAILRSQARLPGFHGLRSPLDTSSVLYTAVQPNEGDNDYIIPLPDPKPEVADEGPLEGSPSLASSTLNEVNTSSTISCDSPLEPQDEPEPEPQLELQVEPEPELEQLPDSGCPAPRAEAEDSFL
Description: Growth assays were carried out using human mammary epithelial SKBR3 (ATCC HTB30) cells (SKBR3 cells over-express HER2), SKOV3 (ATCC HTB77) human ovarian cancer cell line (SKOV3 cells also over-express HER2), A431 cells (A431 cells over-express EGFR) MCF7 human breast carcinoma cells, MCF7 cells overexpressing the HER2 kinase (MCF7-HER2), NIH3T3 cells, and NIH3T3 cells overexpressing the HER2 kinase (3T3-HER2.
The PDGF cellular kinase assay was carried out as follows: cells are lysed in 0.2M Hepes, 0.15M NaCl, 10% V/V glycerol, 0.04% Triton X-100, 5 mM EDTA, 5 mM Na+ vanadate and 2 mM Na+ pyrophosphate; cell lysates are then added to an ELISA plate coated with an anti-PDGF receptor antibody (Genzyme); ELISA plates are coated at 0.5 μg of antibody/well in 150 μl of PBS for 18 hours at 4° C. prior to the addition of the lysate; the lysate is incubated in the coated plates for 1 hour and then washed four times in TBST (35 mM Tris-HCl pH 7.0, 0.15M NaCl, 0.1% Triton X100); anti-phosphotyrosine antibody (100 μl in PBS) is added and the mixture is incubated for 30 minutes at room temperature; the wells were then washed four times in TBST, a secondary antibody conjugated to POD (TAGO) is added to each well, and the treated well are incubated for 30 minutes at room temperature; the wells are then washed four times in TBST, ABTS/H2 O2 solution is added to each well and the wells are incubated for two minutes; absorbance is then measured at 410 nm.
U1242 MG cells were plated in 96-well plates at a concentration of 5×10^4 cells/well in cultured media containing 0.5% FBS. The cells were incubated for 24 hours. The cells were then treated with a particular compound for 2 hours followed by the addition of 100 ng/ml PDGF-BB and incubation for 10 minutes.
Cells were lysed in 0.2M Hepes, 0.15M NaCl, 10% V/V glycerol, 0.04% Triton X-100, 5 mM EDTA, 5 mM Na+ vanadate and 2 mM Na+ pyrophosphate. Cell lysates were then added to an ELISA plate coated with an anti-PDGF receptor antibody (Genzyme). ELISA plates were coated at 0.5 μg of antibody/well in 150 μl of PBS for 18 hours at 4° C. prior to the addition of the lysate.
The lysate was incubated in the coated plates for 1 hour and then washed four times in TBST (35 mM Tris-HCl pH 7.0, 0.15M NaCl, 0.1% Triton X-100). Anti-phosphotyrosine antibody (100 μl in PBS) was added and the mixture was incubated for 30 minutes at room temperature. The wells were then washed four times in TBST, a secondary antibody conjugated to POD (TAGO) was added to each well, and the treated well were incubated for 30 minutes at room temperature. The wells were then washed four times in TBST, ABTS/H2 O2 solution was added to each well and the wells were incubated for two minutes. Absorbance was then measured at 410 nm.

[4] = read-out: GROWTH DATA: 3T3/HER2 2% FBS
[5] = read-out: GROWTH DATA: 3T3/HER2 10% FBS
[6] = U1242 MG cells, PDGF-BB stimulated, read-out: ELISA DATA: PDGFR

Structure (SMILES)	IC50 [1, 4]	IC50 [1, 5]	IC50 [2]	IC50 [3, 6]	IC50 [3]
CC(C)S(=O)(=O)c1csc(NC(=O)Nc2ccc(C(C)(C)C)cc2)c1Cl [Example Z1, N-[3-Chloro-4-(isopropylsulfonyl)thien-2-yl]-N'-(4-t-butylphenyl)urea]	1000 nM	15000 nM	900 nM	> 50000 nM	
CC(C)S(=O)(=O)c1csc(NC(=O)Nc2cc(C(F)(F)F)cc(C(F)(F)F)c2)c1Cl [Example Z2, N-[3-Chloro-4-(isopropylsulfonyl)thien-2-yl]-N'-(3,5-di-trifluoromethylphenyl)urea]	600 nM	18000 nM	300 nM	> 50000 nM	
O=C(Nc1ccc(SC(F)(F)F)cc1)Nc1ccc(Oc2ccc(Cl)cc2Cl)nc1 [Example Z3]	350 nM	18000 nM	200 nM		> 100000 nM
N#Cc1ccc(NC(=S)Nc2ccc(S(=O)(=O)N3CCCCC3)cc2)cc1 [Example Z4, N-(4-Cyanophenyl)-N'-[4-[(piperid-1-yl)sulfonyl]phenyl]thiourea]			1000 nM	> 100000 nM	
